In paper PMC10507085, “Pharmacological inhibition of TBK1/IKKε blunts immunopathology in a murine model of SARS-CoV-2 infection” (Nature Communications, 2023):

Experiments:
Test in all cases: biochemical
Set-up in all cases: KINOMEscan competition binding, DNA-tagged kinase against immobilised ligand, qPCR read-out
Settings in all cases: read-out: Percent Control
[1] = target: TEC (Homo sapiens, UniProt P42680)
[2] = target: SRPK2 (Homo sapiens, UniProt P78362)
[3] = target: DMPK (Homo sapiens, UniProt Q09013)
Sequence of DMPK (Q09013 whole entry): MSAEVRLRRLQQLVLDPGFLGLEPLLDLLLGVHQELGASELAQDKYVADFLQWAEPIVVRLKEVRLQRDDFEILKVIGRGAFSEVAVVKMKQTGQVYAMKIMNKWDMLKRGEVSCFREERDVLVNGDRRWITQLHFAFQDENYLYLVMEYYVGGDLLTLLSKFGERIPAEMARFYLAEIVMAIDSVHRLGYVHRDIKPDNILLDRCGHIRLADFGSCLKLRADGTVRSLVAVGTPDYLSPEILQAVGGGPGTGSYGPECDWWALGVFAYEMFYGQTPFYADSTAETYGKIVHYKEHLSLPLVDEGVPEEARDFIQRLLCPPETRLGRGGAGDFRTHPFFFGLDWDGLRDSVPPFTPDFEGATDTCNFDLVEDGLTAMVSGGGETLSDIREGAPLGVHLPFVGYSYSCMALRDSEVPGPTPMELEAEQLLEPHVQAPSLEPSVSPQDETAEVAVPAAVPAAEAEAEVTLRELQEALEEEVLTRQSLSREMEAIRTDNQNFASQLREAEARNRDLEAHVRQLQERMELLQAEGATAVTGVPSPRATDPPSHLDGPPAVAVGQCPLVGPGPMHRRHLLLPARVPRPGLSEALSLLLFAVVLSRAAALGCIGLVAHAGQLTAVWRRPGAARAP

[4] = target: AKT3 (Homo sapiens, UniProt Q9Y243)
Sequence of AKT3 (Q9Y243 whole entry): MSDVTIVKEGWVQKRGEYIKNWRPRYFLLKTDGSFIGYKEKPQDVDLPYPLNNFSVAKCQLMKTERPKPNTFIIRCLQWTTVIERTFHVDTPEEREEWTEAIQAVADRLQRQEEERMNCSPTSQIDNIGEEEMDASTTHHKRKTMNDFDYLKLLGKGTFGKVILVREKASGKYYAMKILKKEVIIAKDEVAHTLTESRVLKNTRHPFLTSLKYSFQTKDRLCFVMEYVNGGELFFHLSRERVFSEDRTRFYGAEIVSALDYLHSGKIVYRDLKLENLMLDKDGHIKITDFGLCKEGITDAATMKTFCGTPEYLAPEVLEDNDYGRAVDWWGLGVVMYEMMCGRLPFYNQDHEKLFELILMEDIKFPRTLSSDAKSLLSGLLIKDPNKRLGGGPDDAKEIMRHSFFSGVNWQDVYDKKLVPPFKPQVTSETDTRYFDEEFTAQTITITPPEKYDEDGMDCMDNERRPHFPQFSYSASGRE

[5] = target: MYLK3 (Homo sapiens, UniProt Q32MK0)
Sequence of MYLK3 (Q32MK0 whole entry): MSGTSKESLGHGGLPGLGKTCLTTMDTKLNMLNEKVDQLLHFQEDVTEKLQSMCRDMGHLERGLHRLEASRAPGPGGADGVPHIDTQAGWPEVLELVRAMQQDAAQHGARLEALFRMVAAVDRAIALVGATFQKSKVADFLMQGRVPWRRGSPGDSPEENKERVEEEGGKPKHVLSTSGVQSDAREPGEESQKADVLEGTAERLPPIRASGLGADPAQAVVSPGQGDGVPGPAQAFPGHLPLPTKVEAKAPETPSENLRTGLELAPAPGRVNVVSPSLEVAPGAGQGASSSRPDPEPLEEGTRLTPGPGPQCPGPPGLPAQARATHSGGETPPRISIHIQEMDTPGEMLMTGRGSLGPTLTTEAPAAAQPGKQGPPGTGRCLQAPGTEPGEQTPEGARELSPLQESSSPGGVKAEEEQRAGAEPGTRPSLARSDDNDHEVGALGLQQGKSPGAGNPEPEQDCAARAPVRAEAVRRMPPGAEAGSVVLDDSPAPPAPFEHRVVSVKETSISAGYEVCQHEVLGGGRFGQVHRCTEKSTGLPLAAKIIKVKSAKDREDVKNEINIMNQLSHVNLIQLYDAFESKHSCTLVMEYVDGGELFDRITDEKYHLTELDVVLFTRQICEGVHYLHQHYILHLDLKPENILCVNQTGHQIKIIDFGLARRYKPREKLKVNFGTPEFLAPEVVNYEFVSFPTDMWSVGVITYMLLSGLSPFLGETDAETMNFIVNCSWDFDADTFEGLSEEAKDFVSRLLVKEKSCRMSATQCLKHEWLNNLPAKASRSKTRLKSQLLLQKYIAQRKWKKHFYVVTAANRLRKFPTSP

[6] = target: AXL (Homo sapiens, UniProt P30530)
[7] = target: SNRK (Homo sapiens, UniProt Q9NRH2)
[8] = target: GSK3B (Homo sapiens, UniProt P49841)
[9] = target: MAPK1 (Homo sapiens, UniProt P28482)
Sequence of MAPK1 (P28482 whole entry): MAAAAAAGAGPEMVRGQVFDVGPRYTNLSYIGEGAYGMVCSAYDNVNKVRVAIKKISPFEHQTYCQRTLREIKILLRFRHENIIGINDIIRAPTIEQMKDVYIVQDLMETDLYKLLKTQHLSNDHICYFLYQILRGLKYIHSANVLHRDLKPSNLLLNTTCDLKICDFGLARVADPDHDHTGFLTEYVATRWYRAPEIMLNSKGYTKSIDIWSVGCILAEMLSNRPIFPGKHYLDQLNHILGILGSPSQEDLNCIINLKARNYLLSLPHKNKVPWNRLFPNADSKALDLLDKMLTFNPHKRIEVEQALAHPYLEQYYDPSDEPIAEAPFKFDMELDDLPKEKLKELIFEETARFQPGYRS

[10] = target: TIE1 (Homo sapiens, UniProt P35590)
Sequence of TIE1 (P35590 whole entry): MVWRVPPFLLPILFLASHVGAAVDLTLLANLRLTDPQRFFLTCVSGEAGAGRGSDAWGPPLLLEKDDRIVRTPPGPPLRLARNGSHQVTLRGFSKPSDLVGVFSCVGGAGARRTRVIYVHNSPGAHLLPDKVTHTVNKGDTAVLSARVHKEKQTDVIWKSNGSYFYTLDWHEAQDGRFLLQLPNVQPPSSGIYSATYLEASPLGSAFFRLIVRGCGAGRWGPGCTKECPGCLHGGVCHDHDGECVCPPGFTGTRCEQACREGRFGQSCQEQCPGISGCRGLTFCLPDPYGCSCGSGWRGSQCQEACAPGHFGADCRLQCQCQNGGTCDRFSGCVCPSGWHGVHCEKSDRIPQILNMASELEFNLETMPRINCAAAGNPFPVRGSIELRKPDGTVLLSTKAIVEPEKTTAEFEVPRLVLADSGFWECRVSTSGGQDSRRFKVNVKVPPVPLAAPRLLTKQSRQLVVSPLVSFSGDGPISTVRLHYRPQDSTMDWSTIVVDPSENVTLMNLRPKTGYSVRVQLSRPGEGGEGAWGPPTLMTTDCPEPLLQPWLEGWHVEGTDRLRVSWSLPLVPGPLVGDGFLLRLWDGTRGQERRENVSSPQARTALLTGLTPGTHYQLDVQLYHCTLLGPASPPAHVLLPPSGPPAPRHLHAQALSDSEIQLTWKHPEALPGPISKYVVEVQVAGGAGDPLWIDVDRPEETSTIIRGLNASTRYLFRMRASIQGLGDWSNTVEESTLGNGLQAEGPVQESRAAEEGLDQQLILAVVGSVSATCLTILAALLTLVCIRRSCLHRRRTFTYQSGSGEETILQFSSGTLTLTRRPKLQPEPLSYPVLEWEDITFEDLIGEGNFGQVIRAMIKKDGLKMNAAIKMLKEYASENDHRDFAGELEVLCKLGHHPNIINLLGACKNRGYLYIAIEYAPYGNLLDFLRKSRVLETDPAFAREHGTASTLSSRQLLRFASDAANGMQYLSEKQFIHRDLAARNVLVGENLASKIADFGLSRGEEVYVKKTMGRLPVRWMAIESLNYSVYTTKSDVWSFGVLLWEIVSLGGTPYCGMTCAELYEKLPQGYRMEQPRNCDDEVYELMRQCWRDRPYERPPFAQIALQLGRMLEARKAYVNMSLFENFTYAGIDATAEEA

[11] = target: T1, ICK (Homo sapiens, UniProt Q9UPZ9)
T1 construct: gene CILK1

[12] = target: MAP4K3 (Homo sapiens, UniProt Q8IVH8)
[13] = target: RPS6KB1 (Homo sapiens, UniProt P23443)
[14] = target: FES (Homo sapiens, UniProt P07332)
[15] = target: OXSR1 (Homo sapiens, UniProt O95747)
Sequence of OXSR1 (O95747 whole entry): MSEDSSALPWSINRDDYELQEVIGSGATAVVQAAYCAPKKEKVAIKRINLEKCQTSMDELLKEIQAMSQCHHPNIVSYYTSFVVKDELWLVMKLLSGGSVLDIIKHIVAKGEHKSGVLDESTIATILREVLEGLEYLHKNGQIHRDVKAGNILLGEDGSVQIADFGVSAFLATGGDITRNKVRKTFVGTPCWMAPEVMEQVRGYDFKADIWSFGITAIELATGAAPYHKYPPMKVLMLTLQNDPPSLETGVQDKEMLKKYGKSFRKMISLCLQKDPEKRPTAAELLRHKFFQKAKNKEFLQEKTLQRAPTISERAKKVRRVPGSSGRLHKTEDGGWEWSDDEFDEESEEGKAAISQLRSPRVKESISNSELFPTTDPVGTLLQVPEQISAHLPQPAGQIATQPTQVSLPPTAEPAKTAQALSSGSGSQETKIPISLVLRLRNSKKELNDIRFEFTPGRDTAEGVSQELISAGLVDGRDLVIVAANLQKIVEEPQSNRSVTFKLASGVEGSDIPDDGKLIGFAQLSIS

[16] = target: MAP2K1 (Homo sapiens, UniProt Q02750)
[17] = target: MAP3K5 (Homo sapiens, UniProt Q99683)
[18] = target: GRK4 (Homo sapiens, UniProt P32298)
[19] = target: STK24 (Homo sapiens, UniProt Q9Y6E0)
Sequence of STK24 (Q9Y6E0 whole entry): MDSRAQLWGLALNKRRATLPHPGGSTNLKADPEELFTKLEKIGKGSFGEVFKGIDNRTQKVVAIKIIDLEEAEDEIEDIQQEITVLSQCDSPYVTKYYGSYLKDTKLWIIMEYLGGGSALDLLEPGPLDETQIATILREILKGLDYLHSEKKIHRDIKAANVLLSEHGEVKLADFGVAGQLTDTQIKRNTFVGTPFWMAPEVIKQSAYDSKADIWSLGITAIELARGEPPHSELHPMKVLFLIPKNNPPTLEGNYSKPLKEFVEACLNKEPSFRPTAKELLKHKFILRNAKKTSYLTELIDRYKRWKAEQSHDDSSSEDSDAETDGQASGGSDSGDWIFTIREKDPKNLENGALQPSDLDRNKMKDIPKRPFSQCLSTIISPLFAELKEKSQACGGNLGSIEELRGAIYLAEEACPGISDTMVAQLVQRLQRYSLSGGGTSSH

[20] = target: CAMK1G (Homo sapiens, UniProt Q96NX5)
Sequence of CAMK1G (Q96NX5 whole entry): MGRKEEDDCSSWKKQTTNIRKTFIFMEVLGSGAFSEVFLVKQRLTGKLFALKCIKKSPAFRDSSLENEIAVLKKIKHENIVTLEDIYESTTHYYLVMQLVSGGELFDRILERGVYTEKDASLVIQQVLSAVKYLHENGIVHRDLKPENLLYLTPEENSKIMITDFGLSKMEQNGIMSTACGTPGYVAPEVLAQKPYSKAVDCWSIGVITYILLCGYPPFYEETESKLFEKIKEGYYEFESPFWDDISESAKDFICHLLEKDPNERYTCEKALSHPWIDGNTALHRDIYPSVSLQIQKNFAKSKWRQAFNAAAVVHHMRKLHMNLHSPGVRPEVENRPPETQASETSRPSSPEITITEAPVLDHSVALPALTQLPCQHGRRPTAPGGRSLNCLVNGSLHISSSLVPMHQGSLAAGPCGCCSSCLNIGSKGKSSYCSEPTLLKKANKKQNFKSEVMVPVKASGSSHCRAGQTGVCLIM

Oc1ccc(C2=Cc3ccc(O)cc3OC2)cc1 [compound 1, idronoxil]
remaining binding at 10 µM [1]: 93% | remaining binding at 10 µM [2]: 99% | remaining binding at 10 µM [3]: 92% | remaining binding at 10 µM [4]: 84% | remaining binding at 10 µM [5]: 66% | remaining binding at 10 µM [6]: 95% | remaining binding at 10 µM [7]: 81% | remaining binding at 10 µM [8]: 92% | remaining binding at 10 µM [9]: 100% | remaining binding at 10 µM [10]: 84% | remaining binding at 10 µM [11]: 100% | remaining binding at 10 µM [12]: 92% | remaining binding at 10 µM [13]: 84% | remaining binding at 10 µM [14]: 95% | remaining binding at 10 µM [15]: 75% | remaining binding at 10 µM [16]: 86% | remaining binding at 10 µM [17]: 92% | remaining binding at 10 µM [18]: 68% | remaining binding at 10 µM [19]: 79% | remaining binding at 10 µM [20]: 80%
